Data reported in ChEMBL document CHEMBL1124911, “Inhibition of human leukocyte elastase. 2. Inhibition by substituted cephalosporin esters and amides” (J Med Chem, 1990).

Assays:
Neutrophil elastase = target: T1, Neutrophil elastase (Homo sapiens, UniProt P08246); assay: In vitro inhibition of Human Leukocyte Elastase (HLE)
T1 sequence (P08246 whole entry): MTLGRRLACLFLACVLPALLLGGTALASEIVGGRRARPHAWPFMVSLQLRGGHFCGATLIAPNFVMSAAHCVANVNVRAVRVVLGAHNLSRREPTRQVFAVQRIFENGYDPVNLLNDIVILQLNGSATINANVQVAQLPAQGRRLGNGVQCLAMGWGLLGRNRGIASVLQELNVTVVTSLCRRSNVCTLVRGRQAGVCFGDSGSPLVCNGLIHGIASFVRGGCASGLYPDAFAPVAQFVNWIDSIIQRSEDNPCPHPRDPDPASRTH

[1] = target: T2, Neutrophil elastase (Homo sapiens) (UniProt P08246)
T2 sequence (whole entry): T1 sequence (P08246 whole entry)
Description: Second-order rate constant for time-dependent inactivation of leukocyte elastase

[2] = target: T2, Neutrophil elastase (Homo sapiens); remark: listed apart in the source
[3] = target: T2, Neutrophil elastase (Homo sapiens); assay: Second-order rate constant for time-dependent inactivation of Human Leukocyte Elastase was determined; G means no time-dependent inhibition was observed
[4] = target: T2, Neutrophil elastase (Homo sapiens); remark: listed apart in the source
Description: Second-order rate constant for time-dependent inactivation of Human Leukocyte Elastase was determined; H means an inverse progress curve was observed

Row | SMILES | IC50 (Neutrophil elastase) | K obs / 1 [1] | also measured
1 | CO[C@H]1C(=O)N2C(C(=O)O)=C(COC(C)=O)CS(=O)(=O)[C@H]12 | > 50000 nM | – | –
2 | CO[C@H]1C(=O)N2C(C(=O)N(C)Cc3ccc(C(=O)O)cc3)=C(COC(C)=O)CS(=O)(=O)[C@H]12 | 400 nM | 8600 M⁻¹ s⁻¹ | –
3 | COC(=O)CN(C)C(=O)C1=C(COC(C)=O)CS(=O)(=O)[C@@H]2[C@@H](OC)C(=O)N12 | – | 9500 M⁻¹ s⁻¹ | –
4 | CO[C@H]1C(=O)N2C(C(=O)NCCC(=O)O)=C(COC(C)=O)CS(=O)(=O)[C@H]12 | > 50000 nM | – | –
5 | CO[C@H]1C(=O)N2C(C(=O)OC(C)(C)C)=C(COC(C)=O)CS(=O)(=O)[C@H]12 | – | – | K obs / 1 [2]: 16000 M⁻¹ s⁻¹
6 | CO[C@H]1C(=O)N2C(C(=O)OCc3ccccc3)=C(COC(C)=O)CS(=O)(=O)[C@H]12 | 70 nM | – | K obs / 1 [3]: No time-dependent inhibition was observed
7 | CO[C@H]1C(=O)N2C(C(=O)OCc3ccc(C(C)(C)C)cc3)=C(COC(C)=O)CS(=O)(=O)[C@H]12 | 200 nM | – | K obs / 1 [4]: Inverse progress curve was observed
8 | CO[C@H]1C(=O)N2C(C(=O)N(C)C)=C(COC(C)=O)CS(=O)(=O)[C@H]12 | 2000 nM | 3900 M⁻¹ s⁻¹ | –
9 | COc1ccc(COC(=O)C2=C(COC(C)=O)CS(=O)(=O)[C@@H]3[C@@H](OC)C(=O)N23)cc1 | 100 nM | – | K obs / 1 [4]: Inverse progress curve was observed
10 | CO[C@H]1C(=O)N2C(C(=O)N(C)CCC(=O)O)=C(COC(C)=O)CS(=O)(=O)[C@H]12 | – | 500 M⁻¹ s⁻¹ | –
11 | CO[C@H]1C(=O)N2C(C(=O)NC(C)(C)C)=C(COC(C)=O)CS(=O)(=O)[C@H]12 | 800 nM | 2200 M⁻¹ s⁻¹ | –
12 | CCCC[C@H](NC(=O)OC(C)(C)C)[C@@H](O)C(=O)O[C@H]1C[C@@]2(O)[C@@H](OC(=O)c3ccccc3)[C@@H]3[C@]4(OC(C)=O)CO[C@@H]4C[C@H](O)[C@@]3(C)[C@@H](O)[C@H](OC(C)=O)C(=C1C)C2(C)C | – | 900 M⁻¹ s⁻¹ | –
13 | CO[C@H]1C(=O)N2C(C(=O)N3CCOCC3)=C(COC(C)=O)CS(=O)(=O)[C@H]12 | – | 35000 M⁻¹ s⁻¹ | –

Further lines, with some results ahead:

Row | IC50 (Neutrophil elastase) | K obs / 1 [1] | SMILES | also measured
14 | 200 nM | – | CO[C@H]1C(=O)N2C(C(=O)N(C)CC(=O)OC(C)(C)C)=C(COC(C)=O)CS(=O)(=O)[C@H]12 | –
15 | – | 6200 M⁻¹ s⁻¹ | COC(=O)CCN(C)C(=O)C1=C(COC(C)=O)CS(=O)(=O)[C@@H]2[C@@H](OC)C(=O)N12 | –
16 | 400 nM | – | CO[C@H]1C(=O)N2C(C(=O)OCc3ccc(C(=O)OC(C)(C)C)cc3)=C(COC(C)=O)CS(=O)(=O)[C@H]12 | K obs / 1 [3]: No time-dependent inhibition was observed
17 | 100 nM | – | CCOC(=O)COC(=O)C1=C(COC(C)=O)CS(=O)(=O)[C@@H]2[C@@H](OC)C(=O)N12 | –
18 | 200 nM | – | COC(=O)C1=C(COC(C)=O)CS(=O)(=O)[C@@H]2[C@@H](OC)C(=O)N12 | K obs / 1 [2]: 17000 M⁻¹ s⁻¹
19 | > 50000 nM | – | CO[C@H]1C(=O)N2C(C(=O)NCC(=O)O)=C(COC(C)=O)CS(=O)(=O)[C@H]12 | –
20 | – | 27000 M⁻¹ s⁻¹ | CO[C@H]1C(=O)N2C(C(=O)N3CCCC3)=C(COC(C)=O)CS(=O)(=O)[C@H]12 | –
21 | 5000 nM | 300 M⁻¹ s⁻¹ | CO[C@H]1C(=O)N2C(C(=O)N(C)CC(=O)O)=C(COC(C)=O)CS(=O)(=O)[C@H]12 | –
